Laboratory results: PubChem BioAssay (NCI)
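Five concentrations, 48 hours, 96-well plates. At the TGI there is no net growth.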

Experiments:
Assay in all cases: NCI anticancer screen, dose series, 48 h
[1] = tested on: OVCAR-8 ovarian
[2] = tested on: DMS 273 small cell lung
[3] = tested on: OVCAR-3 ovarian
[4] = tested on: SNB-19 CNS
[5] = tested on: SF-268 CNS
[6] = tested on: HCC-2998 colon
[7] = tested on: SK-OV-3 ovarian
[8] = tested on: UACC-62 melanoma
[9] = tested on: NCI-H23 lung
[10] = tested on: NCI-H460 lung
[11] = tested on: SK-MEL-28 melanoma
[12] = tested on: SN12C renal
[13] = tested on: MALME-3M melanoma
[14] = tested on: NCI-H226 lung
[15] = tested on: TK-10 renal
[16] = tested on: SNB-75 CNS
[17] = tested on: MOLT-4 leukemia
[18] = tested on: SF-295 CNS
[19] = tested on: RXF 393 renal
[20] = tested on: UO-31 renal
[21] = tested on: SK-MEL-2 melanoma
[22] = tested on: HOP-18 NSCLC
[23] = tested on: HCT-15 colon
[24] = tested on: LXFL 529 NSCLC
[25] = tested on: XF 498 CNS
[26] = tested on: K-562 leukemia
[27] = tested on: HT29 colon
[28] = tested on: LOX IMVI melanoma
[29] = tested on: U251 CNS
[30] = tested on: SNB-78 CNS
[31] = tested on: IGROV1 ovarian
[32] = tested on: UACC-257 melanoma
[33] = tested on: OVCAR-4 ovarian
[34] = tested on: KM12 colon
[35] = tested on: M19-MEL melanoma
[36] = tested on: ACHN renal
[37] = tested on: NCI-H522 lung
[38] = tested on: DMS 114 small cell lung
[39] = tested on: SK-MEL-5 melanoma
[40] = tested on: SF-539 CNS
[41] = tested on: A498 renal
[42] = tested on: DLD-1 colon
[43] = tested on: A549 NSCLC
[44] = tested on: M14 melanoma
[45] = tested on: HL-60(TB) leukemia
[46] = tested on: CCRF-CEM leukemia
[47] = tested on: HCT-116 colon

Measured: TGI

O=C(NN1C(=O)C(Cl)C1c1cccc(O)c1)c1ccccc1O (configuration not stated)
> 100 µM: [1] | [2] | [3] | [4] | [5] | [6] | [7] | [8] | [9] | [10] | [11] | [12] | [13] | [14] | [15] | [16] | [17] | [18] | [19] | [20] | [21] | [22] | [23] | [24] | [25] | [26] | [27] | [28] | [29] | [30] | [31] | [32] | [33] | [34] | [35] | [36] | [37] | [38] | [39] | [40] | [41] | [42] | [43] | [44] | [45] | [46] | [47]
